Target: T1, CDK2/CyclinA (Homo sapiens, UniProt P24941)
T1 construct: purchased Upstate Biotechnology
Assay: Measurement of CDK2 kinase inhibitory activity (IC50), 33P-ATP / histone H1 filter assay
Type: biochemical
Protocol: Measurement of CDK2 Kinase Inhibitory Activity (IC50)
Compounds of the invention were tested for kinase inhibitory activity using the following protocol.
1.7 μl of active CDK2/CyclinA (Upstate Biotechnology, 10 U/μl) is diluted in assay buffer (250 μl of 10× strength assay buffer (200 mM MOPS pH 7.2, 250 mM β-glycerophosphate, 50 mM EDTA, 150 mM MgCl2), 11.27 μl 10 mM ATP, 2.5 μl 1M DTT, 25 μl 100 mM sodium orthovanadate, 708.53 μl H2O), and 10 μl mixed with 10 μl of histone substrate mix (60 μl bovine histone H1 (Upstate Biotechnology, 5 mg/ml), 940 μl H2O, 35 μCi γ^33P-ATP) and added to 96 well plates along with 5 μl of various dilutions of the test compound in DMSO (up to 2.5%). The reaction is allowed to proceed for 5 hours before being stopped with an excess of ortho-phosphoric acid (30 μl at 2%).
γ^33P-ATP which remains unincorporated into the histone H1 is separated from phosphorylated histone H1 on a Millipore MAPH filter plate. The wells of the MAPH plate are wetted with 0.5% orthophosphoric acid, and then the results of the reaction are filtered with a Millipore vacuum filtration unit through the wells. Following filtration, the residue is washed twice with 200 μl of 0.5% orthophosphoric acid. Once the filters have dried, 25 μl of Microscint 20 scintillant is added, and then counted on a Packard Topcount for 30 seconds.

SMILES	inhibition at 50 µM [%]
O=C(Nc1cccc(-c2nnn[nH]2)c1)c1n[nH]c2ccccc12 [Example 4, N-[3-(1H-tetrazol-5-yl)phenyl]-1H-indazole-3-carboxamide]	≥ 50
CC(=O)NCc1ccc(NC(=O)c2n[nH]c3ccccc23)cc1 [Example 5, N-[4-(acetylaminomethyl)phenyl]-1H-indazole-3-carboxamide]	≥ 50
O=C(Nc1ccc(N2CCCC2=O)cc1)c1n[nH]c2ccccc12 [Example 6, N-[4-(2-oxopyrrolidin-1-yl)phenyl]-1H-indazole-3-carboxamide]	≥ 50
O=C(Nc1ccc(S(=O)(=O)N2CCOCC2)cc1)c1n[nH]c2ccccc12 [Example 10, N-[4-(morpholine-4-sulphonyl)phenyl]-1H-indazole-3-carboxamide]	≥ 50
NS(=O)(=O)c1ccc(NC(=O)c2n[nH]c3ccc(I)cc23)cc1 [Example 12, N-(4-aminosulphonylphenyl)-5-iodo-1H-indazole-3-carboxamide]	≥ 50
CNS(=O)(=O)Cc1ccc(NC(=O)c2n[nH]c3ccc(I)cc23)cc1 [Example 13]	≥ 50
CC(=O)NCc1ccc(NC(=O)c2n[nH]c3ccc(I)cc23)cc1 [Example 15, N-[4-(acetylaminomethyl)phenyl]-5-iodo-1H-indazole-3-carboxamide]	≥ 50
O=C(Nc1ccc([N+](=O)[O-])cn1)c1n[nH]c2ccc(I)cc12 [Example 16, N-(5-nitro-pyridin-2-yl)-5-Iodo-1H-indazole-3-carboxamide]	≥ 50
O=C(Nc1ccccc1)c1n[nH]c2ccc(N3CCOCC3)cc12 [Example 17, 5-Morpholin-4-yl-1H-indazole-3-carboxylic acid phenylamide]	≥ 50
NS(=O)(=O)c1ccc(NC(=O)c2n[nH]c3ccc([N+](=O)[O-])cc23)cc1 [Example 18, 5-Nitro-1H-indazole-3-carboxylic acid (4-sulphamoyl-phenyl)-amide]	≥ 50
CNS(=O)(=O)Cc1ccc(NC(=O)c2n[nH]c3ccc([N+](=O)[O-])cc23)cc1 [Example 19, 5-Nitro-1H-indazole-3-carboxylic acid (4-methylsulphamoylmethyl-phenyl)-amide]	≥ 50
CNS(=O)(=O)Cc1ccc(NC(=O)c2n[nH]c3ccc(-c4cccs4)cc23)cc1 [Example 21, 5-Thiophen-2-yl-1H-indazole-3-carboxylic acid (4-methylsulphamoylmethyl-phenyl)-amide]	≥ 50
CNS(=O)(=O)Cc1ccc(NC(=O)c2n[nH]c3ccc(-c4ccco4)cc23)cc1 [Example 23, 5-Furan-2-yl-1H-indazole-3-carboxylic acid (4-methylsulphamoylmethyl-phenyl)-amide]	≥ 50
CNS(=O)(=O)Cc1ccc(NC(=O)c2n[nH]c3ccc(-c4cc5ccccc5o4)cc23)cc1 [Example 24, 5-Benzofuran-2-yl-1H-indazole-3-carboxylic acid (4-methylsulphamoylmethyl-phenyl)-amide]	≥ 50
O=C(Nc1ccc(Cl)nc1)c1n[nH]c2ccccc12 [Example 28, 1H-Indazole-3-carboxylic acid (6-chloro-pyridin-3-yl)-amide]	≥ 50
CNS(=O)(=O)Cc1ccc(NC(=O)c2n[nH]c3ccc(-c4nccs4)cc23)cc1 [Example 29, 5-Thiazol-2-yl-1H-indazole-3-carboxylic acid (4-methylsulphamoylmethyl-phenyl)-amide]	≥ 50
CCOC(=O)N1CCC(NC(=O)c2n[nH]c3ccc([N+](=O)[O-])cc23)CC1 [Example 34]	≥ 50

SMILES	inhibition at 50 µM [%]
CCCCNC(=O)NS(=O)(=O)c1ccc(NC(=O)c2n[nH]c3ccccc23)cc1 [Example 35]	≥ 50
N=C(N)NS(=O)(=O)c1ccc(NC(=O)c2n[nH]c3ccccc23)cc1 [Example 36]	≥ 50
CCOC(=O)N1CCC(NC(=O)c2n[nH]c3ccc(Cl)cc23)CC1 [Example 38]	≥ 50
COc1ccc(NC(=O)c2n[nH]c3ccc(I)cc23)cn1 [Example 39]	≥ 50
O=C(Nc1cccnc1)c1n[nH]c2ccc(I)cc12 [Example 40]	≥ 50
O=C(Nc1cnc2ccccc2c1)c1n[nH]c2ccc(I)cc12 [Example 41]	≥ 50
O=C(NC1CCOCC1)c1n[nH]c2ccc(Cl)cc12 [Example 42]	≥ 50
O=C(Nc1cccnc1)c1n[nH]c2ccc(Cl)cc12 [Example 47]	≥ 50
O=C(Nc1ccccc1)c1n[nH]c2ccc(Cl)cc12 [Example 49]	≥ 50
CCc1nnc(NC(=O)c2n[nH]c3ccc(Cl)cc23)s1 [Example 51]	≥ 50
O=C(Nc1ccc[nH]c1=O)c1n[nH]c2ccc(I)cc12 [Example 53]	≥ 50
O=C(Nc1ccccc1)c1n[nH]c2ccc([N+](=O)[O-])cc12 [Example 55]	≥ 50
O=C(Nc1ccc(Cl)nc1)c1n[nH]c2ccc(I)cc12 [Example 56]	≥ 50
CC(C)(C)OC(=O)N1CCC(NC(=O)c2n[nH]c3ccccc23)CC1 [Example 57]	≥ 50
Nc1ccc2[nH]nc(C(=O)Nc3ccccc3)c2c1 [Example 60, 5-Amino-1H-indazole-3-carboxylic acid phenylamide]	≥ 50
CNS(=O)(=O)Cc1ccc(NC(=O)c2n[nH]c3ccc(NC(=O)NCCCl)cc23)cc1 [Example 63, 5-[3-(2-Chloro-ethyl)-ureido]-1H-indazole-3-carboxylic acid (4-methylsulphamoylmethyl-phenyl)-amide]	≥ 50
O=C(NC1CCNCC1)c1n[nH]c2ccc(I)cc12 [Example 64, 5-Iodo-1H-indazole-3-carboxylic acid piperidin-4-ylamide]	≥ 50

The next lines start with the values.

inhibition at 50 µM [%]	SMILES
≥ 50	O=C(Nc1cccc(-c2cnco2)c1)c1n[nH]c2ccccc12 [Example 7, N-[3-(oxazol-5-yl)phenyl)-1H-indazole-3-carboxamide]
≥ 50	O=C(Nc1ccc(-c2c[nH]cn2)cc1)c1n[nH]c2ccccc12 [Example 8, N-[4-(1H-imidazol-4-yl)phenyl]-1H-indazole-3-carboxamide]
≥ 50	CS(=O)(=O)c1cccc(NC(=O)c2n[nH]c3ccccc23)c1 [Example 9, N-[3-methanesulphonylphenyl]-1H-indazole-3-carboxamide]
≥ 50	O=C(Nc1ccccc1)c1n[nH]c2ccc(I)cc12 [Example 11, N-phenyl-5-iodo-1H-indazole-3-carboxamide]
≥ 50	CS(=O)(=O)c1cccc(NC(=O)c2n[nH]c3ccc(I)cc23)c1 [Example 14, N-(3-methanesulphonylphenyl)-5-iodo-1H-indazole-3-carboxamide]
≥ 50	CNS(=O)(=O)Cc1ccc(NC(=O)c2n[nH]c3ccc(-c4c(C)noc4C)cc23)cc1 [Example 22, 5-(3,5-Dimethyl-isoxazol-4-yl)-1H-indazole-3-carboxylic acid (4-methylsulphamoylmethyl-phenyl)-amide]
≥ 50	CNS(=O)(=O)Cc1ccc(NC(=O)c2n[nH]c3ccc(Cl)cc23)cc1 [Example 25, 5-Chloro-1H-indazole-3-carboxylic acid (4-methylsulphamoylmethyl-phenyl)-amide]
≥ 50	NS(=O)(=O)c1ccc(NC(=O)c2n[nH]c3ccccc23)cc1 [Example 26, 1H-Indazole-3-carboxylic acid (4-sulphamoyl-phenyl)-amide]
≥ 50	O=C(Nc1ccccc1)c1n[nH]c2ccccc12 [Example 27]
≥ 50	O=C(Nc1ccc(S(=O)(=O)Nc2nccs2)cc1)c1n[nH]c2ccccc12 [Example 31]
≥ 50	CNS(=O)(=O)Cc1ccc(NC(=O)c2n[nH]c3ccc(-c4ccccc4)cc23)cc1 [Example 32]
≥ 50	CS(=O)(=O)NCc1ccc(NC(=O)c2n[nH]c3ccc([N+](=O)[O-])cc23)cc1 [Example 33]
≥ 50	O=C(NC1CCN(Cc2ccccc2)C1)c1n[nH]c2ccc(Cl)cc12 (stereo not drawn) [Example 37]
≥ 50	CN1CCC(NC(=O)c2n[nH]c3ccc(Cl)cc23)CC1 [Example 43]
≥ 50	O=C(Nc1cccnc1Cl)c1n[nH]c2ccc(I)cc12 [Example 44]
≥ 50	O=C(NCc1ccccc1)c1n[nH]c2ccc(Cl)cc12 [Example 45]
≥ 50	CN1CCN(c2ccc(CNC(=O)c3n[nH]c4ccc(Cl)cc34)cc2)CC1 [Example 46]
≥ 50	N#Cc1ccc(NC(=O)c2n[nH]c3ccc(I)cc23)cn1 [Example 48]
≥ 50	Cc1ccc(NC(=O)c2n[nH]c3ccc(I)cc23)nn1 [Example 50]
≥ 50	O=C(Nc1ccc(N2CCOCC2)cc1)c1n[nH]c2ccc(I)cc12 [Example 52]
≥ 50	O=C(Nc1ccc(N2CCOCC2)cc1)c1n[nH]c2ccccc12 [Example 54]
≥ 50	O=C(Nc1ccc(F)cc1)c1n[nH]c2ccc(I)cc12 [Example 58]
≥ 50	CC(=O)Nc1ccc(NC(=O)c2n[nH]c3ccc(I)cc23)cn1 [Example 59]

From patent US20060135589A1, “1h-Indazole-3-carboxamide compounds as cyclin dependent kinase (cdk) inhibitors” (Astex Technology, Inc., priority 2002, published 2006)
